Like-named read-outs stand apart in the source and are kept apart here.

The test system of the test is L1210 leukemia. Description: Lymphoid Leukemia L1210, survival of tumored mice. The test is classed as in vivo, CD2F1 mice. Particulars: for response vs control in vivo at 200 mg/kg: 200 mg/kg i.p.; for response vs control in vivo at 37.5 mg/kg: 37.5 mg/kg i.p.; for response vs control in vivo at 75 mg/kg: 75 mg/kg i.p. Here is the method:
The efficacy of the compounds of this invention against the transplanted mouse tumors was evaluated in test systems currently in use at the National Cancer Institute for the detection and assessment of anticancer activity. […] J. Cancer, 17, 129-142, (1981); Venditti, J. M., Seminars in Oncology, 8 (4) (1981); Goldin, A. and J. M. Venditti, in Recent Results in Cancer Research, 70, S. K. Carter and Y. Sakurai, Eds., Springer-Verlag, Berlin/Heidelberg, 1980].
The animals used in this test were CD2 F1 mice, all males weighing a minimum of 18 g and all within a 4 g weight range at the start of the test. The test group consisted of six mice. The tumor was implanted in each of the test mice by the intraperitoneal injection of 0.1 ml of diluted ascitic fluid containing 10^5 cells drawn from a mouse with L1210 leukemia. The test compounds were suspended in hydroxypropylcellulose or saline with Tween® 80 surfactant or dissolved in saline and injected intraperitoneally, at various doses, once daily for nine consecutive days starting on day one relative to the day of tumor inoculation (day 0). The control mice received injections of saline or hydroxypropylcellulose vehicle only. The mice were weighed and survivors were recorded on a regular basis for 30 days. The median survival time and the ratio of the median survival time for the treated (T) and control (C) mice was calculated. […] Drug effectiveness was assessed on the basis of the survival time. Results were expressed as a percentage of the control survival time (Median Survival Time: T/C ×100%). The criterion for effectiveness was determined by: T/C×100≥125 percent.

Setting [1] is: Mus musculus, L1210, ip, 720 h, read-out: L1210 Leukemia % T/C (median survival time).
The mark [2] stands for this setting: Mus musculus, L1210, ip, 720 h, 100 mg/kg i.p., read-out: L1210 Leukemia % T/C (median survival time).
Where [3] appears, read: Mus musculus, L1210, ip, 720 h, nonoptimal Q1DX9 instead of Q3DX9, read-out: L1210 Leukemia % T/C (median survival time).
The mark [4] stands for this setting: Mus musculus, L1210, ip, 720 h, 25 mg/kg i.p., read-out: L1210 Leukemia % T/C (median survival time).
[5] abbreviates: Mus musculus, L1210, ip, 720 h, 50 mg/kg i.p., read-out: L1210 Leukemia % T/C (median survival time).
Setting [6] is: Mus musculus, L1210, ip, 720 h, 50 mg/kg i.p., nonoptimal Q1DX9 instead of Q3DX9, read-out: L1210 Leukemia % T/C (median survival time).
The mark [7] stands for this setting: Mus musculus, L1210, ip, 720 h, 175 mg/kg i.p., read-out: L1210 Leukemia % T/C (median survival time).

On to `Cc1c(-c2ccc(Oc3ccc(F)cc3)cc2)nc2ccc(F)cc2c1C(=O)O` [Example 125], for which the “L1210 Leukemia % T/C (median survival time)” value (“L1210 Leukemia % T/C” for short) (150 mg/kg i.p.) is 150%.

As to `Cc1c(-c2ccc(Sc3ccccc3)cc2)nc2ccc(Cl)cc2c1C(=O)O` [Example 21], the response vs control in vivo at 200 mg/kg under setting [1] was 160%. Take `Cc1ccc(-c2ccc(-c3nc4ccc(F)c(Cl)c4c(C(=O)O)c3C)cc2)cc1` [Example 85]: the “L1210 Leukemia % T/C” value (100 mg/kg i.p.) is reported as 184%.

On to `Cc1c(-c2ccc(Oc3ccccc3)cc2)nc2ccc(Cl)cc2c1C(=O)O` [Example 172], for which, under setting [2], the response vs control in vivo at 100 mg/kg came to 151%. Take `Cc1c(-c2ccc(-c3ccc(F)cc3)cc2)nc2cc(Cl)c(F)cc2c1C(=O)O` [Example 144]: the response vs control in vivo at 37.5 mg/kg under setting [3] came to 123%. Take `Cc1cc2c(C(=O)O)c(C)c(-c3ccc(Oc4ccccc4)cc3)nc2cc1Cl` [Example 149]: the response vs control in vivo at 75 mg/kg under setting [3] is 107%.

On to `Cc1c(-c2ccc(-c3ccc(Cl)c(Cl)c3)cc2)nc2ccc(F)cc2c1C(=O)O` [Example 126], for which the response vs control in vivo at 37.5 mg/kg under setting [1] stood at 150%. For `Cc1c(-c2ccc(-c3ccccc3)cc2)nc2ccc(I)cc2c1C(=O)O` [Example 71], the response vs control in vivo at 25 mg/kg under setting [4] was 163%. As to `Cc1c(-c2ccc(C3CCCCC3)cc2)nc2ccc(Br)cc2c1C(=O)O` [Example 135], the “L1210 Leukemia % T/C” value (400 mg/kg i.p.) is on record as 160%. On to `Cc1c(-c2ccc(-c3ccccc3F)cc2)nc2ccc(F)cc2c1C(=O)OCCCN(C)C` [Example 199], for which the response vs control in vivo at 25 mg/kg under setting [4] came to 153%. `Cc1c(-c2ccc(-c3ccc(F)cc3)cc2)nc2ccc(Cl)cc2c1C(=O)O` [Example 113]: the “L1210 Leukemia % T/C” value (25 mg/kg i.p.) is given as 166%.

Turning to `Cc1c(-c2ccc(-c3ccc(Br)cc3)cc2)nc2ccc(Cl)cc2c1C(=O)O` [Example 175], where the note is “Mus musculus, L1210, ip, 720 h, 12.5 mg/kg i.p., read-out: L1210 Leukemia % T/C (median survival time)”, the response vs control in vivo at 12.5 mg/kg amounted to 156%. `Cc1c(-c2ccc(-c3ccccc3F)cc2)nc2ccc(Cl)cc2c1C(=O)O` [Example 160]: the response vs control in vivo at 25 mg/kg under setting [4] came out at 174%. For `Cc1c(-c2ccc(Oc3ccc(F)cc3)cc2)nc2ccc(F)cc2c1C(=O)O` [Example 35], the “L1210 Leukemia % T/C” value (150 mg/kg i.p.) is reported as 204%. In the case of `Cc1ccc2nc(-c3ccc(-c4ccccc4)cc3)c(C)c(C(=O)O)c2c1Cl` [Example 166], the response vs control in vivo at 50 mg/kg under setting [5] came out at 156%. With `Cc1c(-c2ccc(Oc3ccccc3)cc2)nc2ccc(C(F)(F)F)cc2c1C(=O)O` [Example 147], where the note is “Mus musculus, L1210, ip, 720 h, 18 mg/kg i.p., read-out: L1210 Leukemia % T/C (median survival time)”, the response vs control in vivo at 18 mg/kg amounted to 132%. As for `Cc1c(-c2ccc(Oc3ccccc3)cc2)nc2ccc(Cl)cc2c1C(=O)O` [Example 110], the response vs control in vivo at 25 mg/kg under setting [4] was found to be 135%. Consider `Cc1ccc(-c2ccc(-c3nc4ccc(F)cc4c(C(=O)O)c3C)cc2)cc1C` [Example 129], for which the response vs control in vivo at 100 mg/kg under setting [2] was 154%. For the compound `COc1c(-c2ccc(-c3ccccc3)cc2)nc2ccc(F)cc2c1C(=O)O` [Example 37], the “L1210 Leukemia % T/C” value (50 mg/kg i.p.) is given as 155%.

Consider `O=C(O)c1cc(-c2ccc(-c3ccccc3)cc2)nc2ccc(F)cc12` [Example 182], for which the response vs control in vivo at 46 mg/kg (Mus musculus, L1210, ip, 720 h, 46 mg/kg i.p., read-out: L1210 Leukemia % T/C (median survival time)) turned out to be 168%.

`CCC(C)c1ccc(-c2nc3ccc(F)cc3c(C(=O)O)c2C)cc1` (centres unmarked) [Example 99]: the response vs control in vivo at 50 mg/kg under setting [6] was 101%. For the compound `Cc1c(-c2ccc([S+]([O-])c3ccccc3)cc2)nc2ccc(F)cc2c1C(=O)O` (centres unmarked) [Example 34], for the setting “Mus musculus, L1210, ip, 720 h, 400 mg/kg i.p., read-out: L1210 Leukemia % T/C (median survival time)”, the response vs control in vivo at 400 mg/kg is 170%. For `COc1c(-c2ccc(-c3ccc(C(F)(F)F)cc3)cc2)nc2ccc(F)cc2c1C(=O)O` [Example 32], the response vs control in vivo at 175 mg/kg under setting [7] was determined as 153%. Turning to `Cc1c(-c2ccc(-c3ccccc3F)cc2)nc2ccc(F)cc2c1C(=O)OCCCN(C)C` [Example 200], the “L1210 Leukemia % T/C” value (25 mg/kg i.p.) is recorded as 140%.

Take `Cc1c(-c2ccc(-c3cccc(F)c3)cc2)nc2ccccc2c1C(=O)O` [Example 190]: under setting [5], the response vs control in vivo at 50 mg/kg was found to be 195%. On to `Cc1c(-c2ccc(Cc3ccccc3)cc2)nc2ccc(Cl)cc2c1C(=O)O` [Example 22], for which the response vs control in vivo at 100 mg/kg under setting [2] was found to be 135%. For `Cc1c(-c2ccc(-c3ccccc3)cc2)nc2cc(Cl)cc(Cl)c2c1C(=O)O` [Example 165], the response vs control in vivo at 50 mg/kg under setting [5] was determined as 128%. Turning to `Cc1c(-c2ccc(Oc3ccc([N+](=O)[O-])cc3)cc2)nc2ccc(F)cc2c1C(=O)O` [Example 184], where the note is “175 mg/kg i.p.”, the “L1210 Leukemia % T/C” value was 153%. As to `CCc1c(-c2ccc(C3CCCCC3)cc2)nc2ccc(F)cc2c1C(=O)O` [Example 100], the response vs control in vivo at 50 mg/kg under setting [6] came to 103%. Regarding `Cc1ccc2c(C(=O)O)c(C)c(-c3ccc(-c4ccccc4)cc3)nc2c1` [Example 55], the response vs control in vivo at 150 mg/kg (Mus musculus, L1210, ip, 720 h, 150 mg/kg i.p., read-out: L1210 Leukemia % T/C (median survival time)) turned out to be 156%. `COc1c(-c2ccc(-c3ccccc3)cc2)nc2ccc(F)cc2c1C(=O)O` [Example 127]: the “L1210 Leukemia % T/C” value (50 mg/kg i.p.) is 193%. Take `CSc1ccc2nc(-c3ccc(-c4ccccc4)cc3)c(C)c(C(=O)O)c2c1` [Example 76, 2-(4-Biphenyl)-3-methyl-6-methylthio-4-quinoline carboxylic acid]: the response vs control in vivo at 200 mg/kg under setting [1] was determined as 179%. Take `Cc1c(-c2ccc(-c3ccc(F)cc3F)cc2)nc2ccc(F)cc2c1C(=O)O` [Example 74]: the response vs control in vivo at 50 mg/kg under setting [5] was 104%.

For `Cc1c(-c2ccc(-c3ccc(Cl)c(Cl)c3)cc2)nc2ccc(F)cc2c1C(=O)O` [Example 36], under setting [1], the response vs control in vivo at 75 mg/kg amounted to 185%. Turning to `Cc1c(-c2ccc(-c3ccccc3)cc2)nc2c(Br)cc(Br)cc2c1C(=O)O` [Example 150], the response vs control in vivo at 37.5 mg/kg under setting [3] came out at 105%. For `Cc1c(-c2ccc(SCc3ccccc3)cc2)nc2ccc(F)cc2c1C(=O)O` [Example 116], under setting [3], the response vs control in vivo at 75 mg/kg came out at 102%. For `Cc1c(-c2ccc(-c3ccc(F)cc3)cc2)nc2ccc(Cl)cc2c1C(=O)O` [Example 23], the response vs control in vivo at 25 mg/kg under setting [4] stood at 159%. Regarding `CCN(CC)CCOC(=O)c1c(C)c(-c2ccc(-c3ccccc3F)cc2)nc2ccc(F)cc12` [Example 202], where the note is “Mus musculus, L1210, ip, 720 h, 59 mg/kg i.p., read-out: L1210 Leukemia % T/C (median survival time)”, the response vs control in vivo at 59 mg/kg worked out at 164%. Consider `Cc1c(-c2ccc(-c3ccccc3)cc2)nc2ccc(C(F)(F)F)cc2c1C(=O)O` [Example 146], for which, under setting [1], the response vs control in vivo at 37.5 mg/kg amounted to 164%. For the compound `Cc1c(-c2ccc(-c3ccc(Br)cc3)cc2)nc2ccc(Cl)cc2c1C(=O)O` [Example 27], the response vs control in vivo at 50 mg/kg under setting [5] is 155%. With `Cc1c(-c2ccc(Oc3ccc([N+](=O)[O-])cc3)cc2)nc2ccc(F)cc2c1C(=O)O` [Example 86, 6-Fluoro-3-methyl-2-(4-nitrophenoxyphenyl)-4-quinolinecarboxylic acid], under setting [7], the response vs control in vivo at 175 mg/kg stood at 153%. On to `Cc1c(-c2ccc(-c3ccccc3)cc2)nc2ccc(I)cc2c1C(=O)O` [Example 185], for which the response vs control in vivo at 50 mg/kg under setting [5] was 175%. Consider `Cc1cc(-c2ccccc2)ccc1-c1nc2ccc(F)cc2c(C(=O)O)c1C` [Example 158], for which the “L1210 Leukemia % T/C” value (100 mg/kg i.p.) stood at 148%. For the compound `Cc1ccc(-c2ccc(-c3nc4ccc(F)cc4c(C(=O)O)c3C)cc2)cc1Cl` [Example 128], the response vs control in vivo at 25 mg/kg under setting [4] amounted to 135%. In the case of `O=C(O)c1cc(-c2ccc(-c3ccccc3)cc2)nc2ccc(F)cc12` [Example 123], where the note is “Mus musculus, L1210, ip, 720 h, 21.9 mg/kg i.p., read-out: L1210 Leukemia % T/C (median survival time)”, the response vs control in vivo at 21.9 mg/kg amounted to 145%. Regarding `Cc1c(-c2ccc(-c3ccccc3)cc2)nc2ccc(Br)cc2c1C(=O)O` [Example 142], the response vs control in vivo at 37.5 mg/kg under setting [1] is 169%. Regarding `Cc1c(-c2ccc(-c3ccc(Br)cc3)cc2)nc2ccc(Cl)cc2c1C(=O)O` [Example 117], the response vs control in vivo at 25 mg/kg under setting [4] was found to be 163%.

These data come from US5032597A, “Method of using phenylquinolinecarboxylic acids and derivatives for lymthoid leukemia treatment in a mammal” (priority 1987, dated 1991).
